Laboratory results taken from US12528773B2, “Non-lysosomal glucosylceramidase inhibitors and uses thereof” (ALECTOS THERAPEUTICS INC., priority 2020, dated 2026).

Columns and labels:
Format in all cases: biochemical
[1] = test system: rat intestinal alpha-glucosidases; experiment: Inhibition of rat intestinal alpha-glucosidases (rat intestinal lysate, glucose detection); conditions: compound concentration 25 μM, sucrose as substrate
Method: Assay for Determination of Inhibition of Rat Intestinal Alpha-Glucosidases
Various concentrations of test compounds were prepared in DMSO and then diluted into buffer consisting of 100 mM citric acid, 200 mM disodium phosphate, pH 6.0. Rat intestinal acetone powder (Sigma) was dissolved to 12.5 mg/mL in assay buffer and sonicated in an ice bath, centrifuged, and the supernatant was collected, aliquoted and stored at −20° C. until use. On the day of the assay, the rat intestinal lysate was diluted to 6.25 mg/mL (sucrose reactions) and 2.1 mg/ml (maltose reactions) in assay buffer. The final reaction solutions for sucrose contained 2.1 mg/mL rat intestinal lysate, 40 mM sucrose, 50 or 25 μM of test compound, and 3.3% DMSO. The final reaction solution for maltose contained 0.69 mg/mL rat intestinal lysate, 10 mM maltose, 50 or 25 μM of test compound, and 3.3% DMSO. The reaction was initiated by the addition of substrate (sucrose or maltose) and allowed to proceed at 37° C. for 20 min to assess rat intestinal alpha-glycosidase activities. The reaction was stopped by addition of 20 μL of 2 M Tris-HCl, pH 7.0. The glucose produced during the reaction was detected using a commercial Amplex Red glucose detection kit from Thermo Fisher. For a full plate, the Amplex Red detection mixture was prepared by mixing 35 μL glucose oxidase, 35 μL horseradish peroxidase and 35 μL Amplex Red into 3395 μL 1× Amplex Red detection buffer. A total of 30 μL of detection mixture was added to each well. Fluorescence was measured in kinetic mode on a Biotek Synergy H4 plate reader at a wavelength of 573 nm for excitation and 610 nm for emission for 15 min and quantified from the data at 10 min. Incubations without added rat intestinal lysate were used to correct for the background amount of glucose present in the samples. Incubations without added test compound were used to define maximal enzyme activity. Percent inhibition of rat intestinal alpha-glucosidases was determined by dividing the amount of glucose detected in the presence of test compound by the amount of glucose detected in the maximal enzyme activity wells. All conditions were analyzed in triplicate. […] The final reaction solutions were the same as described above for the Amplex Red Detection kit. After a 20 min reaction time at 37° C., 100 μL of hexokinase glucose reagent was added to all test wells except for the no enzyme added control wells and no test compound added wells. The plate was incubated for a further 15 min at room temperature and the absorbance was read at 340 nm on a Biotek Synergy H4 plate reader. The percent inhibition of rat intestinal alpha-glucosidases was determined in a similar manner as described above.

[2] = target: T1, GBA2 (Homo sapiens (Human), UniProt Q9HCG7); experiment: Inhibition of GBA2 in cell lysate (4-methylumbelliferone glucopyranoside substrate); conditions: HEK293T-overexpressing GBA2 cellular homogenate, pH 5.5; read-out: GBA2 IC50;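 also: homogenate of stably transfected HEK293T cells pre-treated with a GCase inhibitor, test compound preincubated 5 min at 37 °C, substrate reaction 20 min at 37 °C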
[3] = target: T1, GBA2; experiment: Binding specificity for GBA2 over other molecules, Ki or IC50 ratio
Text: In some embodiments, one or more of the compounds according to the invention may specifically bind a GBA2. In alternative embodiments, one or more of the compounds according to the invention may specifically bind the active site of a GBA2. […] In alternative embodiments, one or more of the compounds according to the invention may specifically bind the human non-lysosomal glucosylceramidase (GBA2) over the human lysosomal glucosylceramidase (GCase) and/or the human cytosolic glucosylceramidase (GBA3). In alternative embodiments, one or more of the compounds according to the invention may specifically bind the human non-lysosomal glucosylceramidase (GBA2) over the human glucosylceramide synthase (GCS). In alternative embodiments, one or more of the compounds according to the invention may specifically bind the human non-lysosomal glucosylceramidase (GBA2) over an intestinal alpha-glucosidase, where the intestinal alpha-glucosidase may be a sucrase-isomaltase or a maltase-glucoamylase.

T1 sequence (Q9HCG7 whole entry): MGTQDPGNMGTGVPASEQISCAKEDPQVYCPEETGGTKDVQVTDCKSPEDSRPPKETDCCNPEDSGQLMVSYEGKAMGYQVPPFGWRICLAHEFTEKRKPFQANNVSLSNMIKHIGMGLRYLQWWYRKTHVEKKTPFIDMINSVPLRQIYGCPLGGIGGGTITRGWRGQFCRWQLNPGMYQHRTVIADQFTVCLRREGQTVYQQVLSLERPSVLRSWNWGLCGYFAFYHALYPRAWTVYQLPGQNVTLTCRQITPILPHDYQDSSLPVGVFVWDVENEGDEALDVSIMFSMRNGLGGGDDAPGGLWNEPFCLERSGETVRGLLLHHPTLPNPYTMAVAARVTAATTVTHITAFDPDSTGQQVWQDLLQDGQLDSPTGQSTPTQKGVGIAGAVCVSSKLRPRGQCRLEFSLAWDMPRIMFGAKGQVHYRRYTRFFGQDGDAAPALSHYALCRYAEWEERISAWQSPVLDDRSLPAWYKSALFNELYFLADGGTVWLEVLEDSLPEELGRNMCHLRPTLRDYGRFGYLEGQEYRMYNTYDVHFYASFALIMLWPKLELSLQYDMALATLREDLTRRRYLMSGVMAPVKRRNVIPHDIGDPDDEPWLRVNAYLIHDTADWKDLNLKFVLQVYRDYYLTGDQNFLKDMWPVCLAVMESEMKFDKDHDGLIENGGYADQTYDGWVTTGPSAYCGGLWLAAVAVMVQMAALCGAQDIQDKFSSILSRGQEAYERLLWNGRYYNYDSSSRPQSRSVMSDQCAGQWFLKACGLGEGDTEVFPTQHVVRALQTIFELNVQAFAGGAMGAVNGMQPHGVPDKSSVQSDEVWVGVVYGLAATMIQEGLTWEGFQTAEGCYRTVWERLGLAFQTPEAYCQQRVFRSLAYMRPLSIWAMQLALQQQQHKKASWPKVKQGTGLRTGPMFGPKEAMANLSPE

| Structure (SMILES) | rat α-glu. (% inhib.) [1] | IC50 [2] | binding specificity, IC50(other molecule)/IC50(GBA2) or Ki ratio [3] |
| --- | --- | --- | --- |
| O[C@H]1[C@H](O)CN(C[C@@H]2CCCN(c3cnccc3C(F)(F)F)C2)C[C@@H]1O [Example 38, (3S,4S,5R)-1-(((S)-1-(4-(trifluoromethyl)pyridin-3-yl)piperidin-3-yl)methyl)piperidine-3,4,5-triol] | 0% | < 0.1 µM | enhanced binding specificity |
| O[C@H]1[C@H](O)CN(CCc2c(F)cc(OCC3CC3)cc2F)C[C@@H]1O [Example 9, (3S,4r,5R)-1-(4-(cyclopropylmethoxy)-2,6-difluorophenethyl)piperidine-3,4,5-triol] | 0% | < 0.1 µM | enhanced binding specificity |
| O[C@H]1[C@H](O)CN(CCc2c(F)cc(N3CCCCC3)cc2F)C[C@@H]1O [Example 11, (3S,4r,5R)-1-(2,6-difluoro-4-(piperidin-1-yl)phenethyl)piperidine-3,4,5-triol] | 10% | < 0.1 µM | enhanced binding specificity |
| Cc1n[nH]c(C)c1-c1cc(F)c(CCN2C[C@@H](O)[C@H](O)[C@@H](O)C2)c(F)c1 [Example 15, (3S,4r,5R)-1-(4-(3,5-dimethyl-1H-pyrazol-4-yl)-2,6-difluorophenethyl)piperidine-3,4,5-triol] | 8% | < 0.1 µM | enhanced binding specificity |
| O[C@H]1[C@H](O)CN(C[C@H]2CCCN(c3ncccc3C(F)(F)F)C2)C[C@@H]1O [Example 29, (3S,4R,5R)-1-(((R)-1-(3-(trifluoromethyl)pyridin-2-yl)piperidin-3-yl)methyl)piperidine-3,4,5-triol] | 4% | < 0.1 µM | enhanced binding specificity |
| O[C@H]1[C@H](O)CN(C[C@@H]2CCN(c3cccc4scnc34)C2)C[C@@H]1O [Example 28, (3S,4S,5R)-1-(((S)-1-(benzo[d]thiazol-4-yl)pyrrolidin-3-yl)methyl)piperidine-3,4,5-triol] | 11% | < 0.1 µM | – |
| O[C@H]1[C@H](O)CN(CC2CCN(c3ccccc3)CC2)C[C@@H]1O [Example 106, (3S,4r,5R)-1-((1-phenylpiperidin-4-yl)methyl)piperidine-3,4,5-triol] | 9% | < 0.1 µM | – |
| O[C@H]1[C@H](O)CN(CC2Cc3ccccc3C2)C[C@@H]1O [Example 62, (3S,4r,5R)-1-((2,3-dihydro-1H-inden-2-yl)methyl)piperidine-3,4,5-triol] | 12% | < 0.1 µM | – |
| O[C@H]1[C@H](O)CN(C[C@@H]2CCN(c3cnccc3C(F)(F)F)C2)C[C@@H]1O [Example 25, (3S,4S,5R)-1-(((S)-1-(4-(trifluoromethyl)pyridin-3-yl)pyrrolidin-3-yl)methyl)piperidine-3,4,5-triol] | 1% | < 0.1 µM | – |
| CC(F)(F)[C@H]1CC[C@@H](CN2C[C@@H](O)[C@H](O)[C@@H](O)C2)CC1 [Example 187, (3S,4R,5R)-1-(((1s,4S)-4-(1,1-difluoroethyl)cyclohexyl)methyl)piperidine-3,4,5-triol] | 0% | < 0.1 µM | – |
| O[C@H]1[C@H](O)CN(C[C@@H]2CCN(c3ccc(C(F)(F)F)nc3)C2)C[C@@H]1O [Example 162, (3S,4S,5R)-1-(((S)-1-(6-(trifluoromethyl)pyridin-3-yl)pyrrolidin-3-yl)methyl)piperidine-3,4,5-triol] | 0% | < 0.1 µM | – |
| O[C@H]1[C@H](O)CN(C[C@H]2CCCN(c3cnccc3C(F)(F)F)C2)C[C@@H]1O [Example 167, (3S,4R,5R)-1-(((R)-1-(4-(trifluoromethyl)pyridin-3-yl)piperidin-3-yl)methyl)piperidine-3,4,5-triol] | 4% | < 0.1 µM | – |
